Assay [1] deals with GDP-bound KRAS wild-type protein (Homo sapiens, UniProt P01116). As to the kind of experiment: Binding to KRAS by surface plasmon resonance (SPR), Single Cycle Kinetics. Particulars: SPR, Single Cycle Kinetics, GDP-bound KRAS wild-type protein; read-out: KRAS KD.
Assay [2] concerns the target GDP-bound NRAS wild-type protein (Homo sapiens, UniProt P01111). The assay can be described thus: Binding to NRAS by surface plasmon resonance (SPR), Single Cycle Kinetics. The note with it: ratio of KD for GDP-bound NRAS wild-type protein to KD for KRAS, SPR. (In SPR one partner is held on a chip, and binding of the other changes the refractive index at the surface.)
Assay [3] deals with GDP-bound HRAS wild-type protein (Homo sapiens, UniProt P01112). As to the kind of experiment: Binding to HRAS by surface plasmon resonance (SPR), Single Cycle Kinetics. Particulars: ratio of KD for GDP-bound HRAS wild-type protein to KD for KRAS, SPR.
Chain of GDP-bound HRAS wild-type protein (P01112 whole entry): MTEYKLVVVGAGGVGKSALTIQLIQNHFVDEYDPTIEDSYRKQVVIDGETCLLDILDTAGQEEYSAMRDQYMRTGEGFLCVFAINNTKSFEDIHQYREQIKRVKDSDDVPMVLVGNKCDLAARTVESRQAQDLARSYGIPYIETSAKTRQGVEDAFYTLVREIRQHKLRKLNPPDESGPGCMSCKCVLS
Assay [4] relates to human lung cancer strain NCI-H441. As to the kind of experiment: cells. The note with it: NCI-H441, 96 h, read-out: NCI-H441 IC50 (nM), NCI-H441 cell proliferation, 4 days, CellTiter-Glo.

Where a SMILES comes first, the peptide text is derived from it. Bridges are numbered along the chain shown (N, C = ends). [ ]: non-standard residue; d: D form. The star is where a group is joined. hPhe(3-Cl-4-CF3) = N[C@@H](CCc1ccc(C(F)(F)F)c(Cl)c1)C(=O)O; NPrPhe(4-CF3) = CCCN[C@@H](Cc1ccc(C(F)(F)F)cc1)C(=O)O; NMeGly(cPent) = CN[C@H](C(=O)O)C1CCCC1; Ac4c(3,3-Me2) = CC1(C)CC(N)(C(=O)O)C1; NMeNva(3-Et) = CCC(CC)[C@H](NC)C(=O)O; NMeD = CN[C@@H](CC(=O)O)C(=O)O; NMeL = CN[C@@H](CC(C)C)C(=O)O; NMeNva = CCC[C@H](NC)C(=O)O; Morpholide = C1CN(*)CCO1; Ac4c = NC1(C(=O)O)CCC1; NPrGly = CCCNCC(=O)O; Sar = CNCC(=O)O
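Throughout, for IC50: cell proliferation inhibition after four days measured by CellTiter-Glo.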

Chain of GDP-bound KRAS wild-type protein (P01116 whole entry): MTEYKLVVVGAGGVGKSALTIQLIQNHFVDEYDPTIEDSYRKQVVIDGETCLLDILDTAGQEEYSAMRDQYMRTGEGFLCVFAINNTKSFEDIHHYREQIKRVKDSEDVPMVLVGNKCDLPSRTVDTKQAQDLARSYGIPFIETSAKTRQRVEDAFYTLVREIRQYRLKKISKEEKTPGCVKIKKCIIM
Chain of GDP-bound NRAS wild-type protein (P01111 whole entry): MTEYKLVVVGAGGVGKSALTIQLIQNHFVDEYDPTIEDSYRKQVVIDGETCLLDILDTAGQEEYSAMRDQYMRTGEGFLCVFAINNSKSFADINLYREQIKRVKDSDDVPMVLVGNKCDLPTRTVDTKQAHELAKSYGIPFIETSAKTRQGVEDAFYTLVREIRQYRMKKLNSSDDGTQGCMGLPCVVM

What is called Kd is the concentration at which binding is half-saturated. On to `CCO[C@@H]1C[C@H]2C(=O)NC3(CC(C)(C)C3)C(=O)N(C)[C@@H](C3CCCC3)C(=O)N(C)[C@H](C(=O)N(C)C)CC(=O)N(C)[C@@H](C3CCC3)C(=O)N[C@@H]([C@@H](C)CC)C(=O)N(C)CC(=O)N(C)[C@H]3C/C=C\CCN(C3=O)[C@@H](Cc3ccc(C(F)(F)F)cc3)C(=O)N(C)CC(=O)N[C@@H](CCc3ccc(C(F)(F)F)c(OC)c3)C(=O)N2C1` [PP1987], for which the Kd in assay [1] was 0.053 nM. In assay [2], the “NRAS/KRAS (KD ratio)” value is “A (a compound having 10 or more and less than 20 is denoted as A)”. Also, the “HRAS/KRAS (KD ratio)” value in assay [3] was “A (a compound having 10 or more and less than 20 is denoted as A)”. Moreover, the IC50 in assay [4] turned out to be 6.6 nM.

Turning to `CCCC[C@H]1C(=O)N[C@@H]([C@@H](C)CC)C(=O)N(C)CC(=O)N(C)[C@H]2C/C=C\CCN(C2=O)[C@@H](Cc2ccc(C(F)(F)F)cc2)C(=O)N(C)CC(=O)N[C@@H](CCc2cc(F)c(C(F)(F)F)c(F)c2)C(=O)N2C[C@H](OCC)C[C@H]2C(=O)NC2(CC(C)(C)C2)C(=O)N(C)[C@@H](C2CCCC2)C(=O)N(C)[C@H](C(=O)N(C)C)CC(=O)N1C` [PP1649], in assay [1], the Kd came to 0.064 nM. In assay [2], the “NRAS/KRAS (KD ratio)” value is “A (a compound having 10 or more and less than 20 is denoted as A)”. For the same molecule, the “HRAS/KRAS (KD ratio)” value in assay [3] is “B (a compound having 3 or more and less than 10 is denoted as B)”. In addition, the IC50 in assay [4] was 2.2 nM.

In the case of `CC[C@H](C)[C@@H]1NC(=O)[C@H](CC)N(C)C(=O)C[C@@H](C(=O)N(C)C)N(C)C(=O)[C@H](C2CCCC2)N(C)C(=O)C2(CCCC2)N(C)C(=O)[C@@H]2CCCN2C(=O)[C@H](CCc2cc(F)c(C(F)(F)F)c(F)c2)NC(=O)CN(C)C(=O)[C@H](Cc2ccc(C(F)(F)F)cc2)N2CC/C=C\C[C@@H](C2=O)N(C)C(=O)CN(C)C1=O` [PP1805], the Kd in assay [1] is 0.071 nM. Also, the “NRAS/KRAS (KD ratio)” value in assay [2] was “A (a compound having 10 or more and less than 20 is denoted as A)”. In addition, the “HRAS/KRAS (KD ratio)” value in assay [3] was “A (a compound having 10 or more and less than 20 is denoted as A)”. The IC50 in assay [4] is 7 nM.

Take `CCCN(C)C(=O)[C@@H]1CC(=O)N(C)[C@@H](CC(F)F)C(=O)N[C@@H]([C@@H](C)CC)C(=O)N(C)CC(=O)N(C)[C@H]2C/C=C\CCN(C2=O)[C@@H](Cc2ccc(C(F)(F)F)cc2)C(=O)N(C)CC(=O)N[C@@H](CCc2ccc(C(F)(F)F)c(OC)c2)C(=O)N2C[C@@H](C)C[C@H]2C(=O)NC2(CC(C)(C)C2)C(=O)N(C)[C@@H](C2CCCC2)C(=O)N1C` [PP1989]: the dissociation constant Kd in assay [1] worked out at 0.19 nM. Also, in assay [2], the “NRAS/KRAS (KD ratio)” value is “A (a compound having 10 or more and less than 20 is denoted as A)”. In assay [3], the “HRAS/KRAS (KD ratio)” value is “A (a compound having 10 or more and less than 20 is denoted as A)”. For the same molecule, the IC50 in assay [4] is 11.1 nM.

With `CCCN(C)C(=O)[C@@H]1CC(=O)N(C)[C@@H](COCC)C(=O)N[C@@H]([C@@H](C)CC)C(=O)N(C)CC(=O)N(C)[C@H]2C/C=C\CCN(C2=O)[C@@H](Cc2ccc(C(F)(F)F)cc2)C(=O)N(C)CC(=O)N[C@@H](CCc2cc(F)c(C(F)(F)F)c(F)c2)C(=O)N2C[C@H](OCC)C[C@H]2C(=O)NC2(CCC2)C(=O)N(C)[C@@H](C2CCCC2)C(=O)N1C` [PP1988], the Kd in assay [1] came out at 0.06 nM. The “NRAS/KRAS (KD ratio)” value in assay [2] was “A (a compound having 10 or more and less than 20 is denoted as A)”. For the same molecule, the “HRAS/KRAS (KD ratio)” value in assay [3] was “A (a compound having 10 or more and less than 20 is denoted as A)”. In addition, in assay [4], the IC50 was 11 nM.

Take `CCCN1C(=O)CN(C)C(=O)CN(C)C(=O)[C@H]([C@@H](C)CC)NC(=O)[C@H](CC(C)C)N(C)C(=O)C[C@@H](C(=O)N2CCOCC2)N(C)C(=O)[C@H](C(CC)CC)N(C)C(=O)C2(CCC2)NC(=O)[C@@H]2CCCN2C(=O)[C@H](CCc2ccc(C(F)(F)F)c(Cl)c2)NC(=O)CN(C)C(=O)[C@@H]1Cc1ccc(C(F)(F)F)cc1` [PP1958] ([NMeL]I[Sar][Sar][NPrPhe(4-CF3)][Sar][hPhe(3-Cl-4-CF3)]P[Ac4c][NMeNva(3-Et)][NMeD]-Morpholide; lactam N-11): the Kd in assay [1] was 0.53 nM. In assay [2], the “NRAS/KRAS (KD ratio)” value is “B (a compound having 3 or more and less than 10 is denoted as B)”. Also, the “HRAS/KRAS (KD ratio)” value in assay [3] is “B (a compound having 3 or more and less than 10 is denoted as B)”. The IC50 in assay [4] stood at 57.8 nM.

Turning to `CCCN(C)C(=O)[C@@H]1CC(=O)N(C)[C@@H](CC(F)F)C(=O)N[C@@H]([C@@H](C)CC)C(=O)N(C)CC(=O)N(C)[C@H]2C/C=C\CCN(C2=O)[C@@H](Cc2ccc(C(F)(F)F)cc2)C(=O)N(C)CC(=O)N[C@@H](CCc2ccc(C(F)(F)F)c(OC)c2)C(=O)N2C[C@H](OCC)C[C@H]2C(=O)NC2(CC(C)(C)C2)C(=O)N(C)[C@@H](C2CCCC2)C(=O)N1C` [PP2010], the Kd in assay [1] came to 0.14 nM. In assay [2], the “NRAS/KRAS (KD ratio)” value was “A (a compound having 10 or more and less than 20 is denoted as A)”. The “HRAS/KRAS (KD ratio)” value in assay [3] is “B (a compound having 3 or more and less than 10 is denoted as B)”. In addition, the IC50 in assay [4] worked out at 6.6 nM.

With `CCO[C@@H]1C[C@H]2C(=O)NC3(CC(F)(F)C3)C(=O)N(C)[C@@H](C(CC)CC)C(=O)N3CCC[C@@H]3CC(=O)N(C)[C@@H](CC3CC3)C(=O)N[C@@H]([C@@H](C)CC)C(=O)N(C)CC(=O)N(C)[C@H]3C/C=C\CCN(C3=O)[C@@H](Cc3ccc(C(F)(F)F)cc3)C(=O)N(C)CC(=O)N[C@@H](CCc3cc(F)c(C(F)(F)F)c(F)c3)C(=O)N2C1` [PP1614], in assay [1], the Kd is 1.1 nM. For the same molecule, the “NRAS/KRAS (KD ratio)” value in assay [2] was “A (a compound having 10 or more and less than 20 is denoted as A)”. Also, the “HRAS/KRAS (KD ratio)” value in assay [3] was “A (a compound having 10 or more and less than 20 is denoted as A)”. In addition, the IC50 in assay [4] was 54.2 nM.

Regarding `CCC[C@H]1C(=O)N[C@@H]([C@@H](C)CC)C(=O)N(CCC)CC(=O)N(C)CC(=O)N(CCC)[C@@H](Cc2ccc(C(F)(F)F)cc2)C(=O)N(C)CC(=O)N[C@@H](CCc2ccc(C(F)(F)F)c(Cl)c2)C(=O)N2CCC[C@H]2C(=O)NC2(CCC2)C(=O)N(C)[C@@H](C2CCCC2)C(=O)N(C)[C@H](C(=O)N2CCOCC2)CC(=O)N1C` [PP1947] ([NMeNva]I[NPrGly][Sar][NPrPhe(4-CF3)][Sar][hPhe(3-Cl-4-CF3)]P[Ac4c][NMeGly(cPent)][NMeD]-Morpholide; lactam N-11), the dissociation constant (Kd) in assay [1] was determined as 0.37 nM. In assay [2], the “NRAS/KRAS (KD ratio)” value is “B (a compound having 3 or more and less than 10 is denoted as B)”. Moreover, in assay [3], the “HRAS/KRAS (KD ratio)” value is “B (a compound having 3 or more and less than 10 is denoted as B)”. Also, in assay [4], the IC50 is 22 nM.

As to `CCCN1C(=O)CN(C)C(=O)CN(C)C(=O)[C@H]([C@@H](C)OCC)NC(=O)[C@H](CC(C)C)N(C)C(=O)C[C@@H](C(=O)N2CCOCC2)N(C)C(=O)[C@H](C2CCCC2)N(C)C(=O)C2(CC(C)(C)C2)NC(=O)[C@@H]2CCCN2C(=O)[C@H](CCc2ccc(C(F)(F)F)c(Cl)c2)NC(=O)CN(C)C(=O)[C@@H]1Cc1ccc(C(F)(F)F)cc1` [PP1964] ([NMeL]T(Et)[Sar][Sar][NPrPhe(4-CF3)][Sar][hPhe(3-Cl-4-CF3)]P[Ac4c(3,3-Me2)][NMeGly(cPent)][NMeD]-Morpholide; lactam N-11), the Kd in assay [1] was found to be 0.19 nM. Besides, the “NRAS/KRAS (KD ratio)” value in assay [2] was “B (a compound having 3 or more and less than 10 is denoted as B)”. Besides, in assay [3], the “HRAS/KRAS (KD ratio)” value was “B (a compound having 3 or more and less than 10 is denoted as B)”. For the same molecule, the IC50 in assay [4] came out at 10.3 nM.

The record behind these values is patent US20240158446A1, “CYCLIC COMPOUND HAVING SELECTIVE INHIBITORY ACTION ON KRAS OVER HRAS AND NRAS” (CHUGAI SEIYAKU KABUSHIKI KAISHA, priority 2021, published 2024).
